Assay: xn = mol fraction of the nth substance listed
Conditions: 101 kPa, Liquid; for speed of sound: Sing-around technique in a fixed-path interferometer; for mass density: Vibrating tube method

CCCCCCCC[n+]1ccn(C)c1.[Cl-] [1-methyl-3-octylimidazolium chloride] + O
Conditions | mass density [kg/m3] | speed of sound [m/s]
283 K, x1 = 0.000276 | 999.831 | 1451.5
283 K, x1 = 0.000495 | 999.918 | 1454.3
283 K, x1 = 0.000781 | 1000.05 | 1457
283 K, x1 = 0.00102 | 1000.16 | 1460.1
283 K, x1 = 0.0013 | 1000.3 | 1463.2
283 K, x1 = 0.001503 | 1000.38 | 1465.5
283 K, x1 = 0.001892 | 1000.56 | 1469.7
283 K, x1 = 0.002073 | 1000.64 | 1471.7
283 K, x1 = 0.002376 | 1000.78 | 1474.9
283 K, x1 = 0.00261 | 1000.89 | 1477.4
283 K, x1 = 0.002774 | 1000.96 | 1479
283 K, x1 = 0.003111 | 1001.11 | 1482.5
283 K, x1 = 0.003716 | 1001.38 | 1488.4
283 K, x1 = 0.003899 | 1001.46 | 1489.7
283 K, x1 = 0.004079 | 1001.55 | 1491.9
283 K, x1 = 0.004181 | 1001.59 | 1492.8
283 K, x1 = 0.004462 | 1001.71 | 1495.5
283 K, x1 = 0.004601 | 1001.77 | 1496.8
283 K, x1 = 0.004981 | 1001.93 | 1500.1
283 K, x1 = 0.005198 | 1002.02 | 1501.6
283 K, x1 = 0.005607 | 1002.2 | 1505.4
283 K, x1 = 0.005782 | 1002.27 | 1506.8
288 K, x1 = 0.000276 | 999.227 | 1469.6
288 K, x1 = 0.000495 | 999.302 | 1471.9
288 K, x1 = 0.000781 | 999.421 | 1474.6
288 K, x1 = 0.00102 | 999.519 | 1477.3
288 K, x1 = 0.0013 | 999.641 | 1480.2
288 K, x1 = 0.001503 | 999.712 | 1482.2
288 K, x1 = 0.001892 | 999.863 | 1486.1
288 K, x1 = 0.002073 | 999.938 | 1488
288 K, x1 = 0.002376 | 1000.06 | 1490.9
288 K, x1 = 0.00261 | 1000.15 | 1493.3
288 K, x1 = 0.002774 | 1000.21 | 1494.7
288 K, x1 = 0.003111 | 1000.35 | 1497.9
288 K, x1 = 0.003716 | 1000.58 | 1503.2
288 K, x1 = 0.003899 | 1000.64 | 1504.7
288 K, x1 = 0.004079 | 1000.72 | 1506.4
288 K, x1 = 0.004181 | 1000.75 | 1507.3
288 K, x1 = 0.004462 | 1000.85 | 1509.7
288 K, x1 = 0.004601 | 1000.9 | 1510.9
288 K, x1 = 0.004981 | 1001.04 | 1513.8
288 K, x1 = 0.005198 | 1001.12 | 1515.3
288 K, x1 = 0.005607 | 1001.27 | 1518.4
288 K, x1 = 0.005782 | 1001.32 | 1519.6
293 K, x1 = 0.000276 | 998.326 | 1485.5
293 K, x1 = 0.000495 | 998.392 | 1487.7
293 K, x1 = 0.000781 | 998.497 | 1490.3
293 K, x1 = 0.00102 | 998.584 | 1492.6
293 K, x1 = 0.0013 | 998.69 | 1495.3
293 K, x1 = 0.001503 | 998.751 | 1497.2
293 K, x1 = 0.001892 | 998.879 | 1500.8
293 K, x1 = 0.002073 | 998.946 | 1502.5
293 K, x1 = 0.002376 | 999.051 | 1505.2
293 K, x1 = 0.00261 | 999.124 | 1507.3
293 K, x1 = 0.002774 | 999.173 | 1508.7
293 K, x1 = 0.003111 | 999.291 | 1511.6
293 K, x1 = 0.003716 | 999.491 | 1516.5
293 K, x1 = 0.003899 | 999.54 | 1517.8
293 K, x1 = 0.004079 | 999.608 | 1519.3
293 K, x1 = 0.004181 | 999.636 | 1520.1
293 K, x1 = 0.004462 | 999.721 | 1522.3
293 K, x1 = 0.004601 | 999.764 | 1523.3
293 K, x1 = 0.004981 | 999.873 | 1525.9
293 K, x1 = 0.005198 | 999.935 | 1527.2
293 K, x1 = 0.005607 | 1000.06 | 1529.9
293 K, x1 = 0.005782 | 1000.1 | 1530.9
298 K, x1 = 0.000276 | 997.161 | 1499.5
298 K, x1 = 0.000495 | 997.221 | 1501.5
298 K, x1 = 0.000781 | 997.313 | 1503.9
298 K, x1 = 0.00102 | 997.386 | 1506.1
298 K, x1 = 0.0013 | 997.479 | 1508.5
298 K, x1 = 0.001503 | 997.527 | 1510.3
298 K, x1 = 0.001892 | 997.639 | 1513.6
298 K, x1 = 0.002073 | 997.696 | 1515.2
298 K, x1 = 0.002376 | 997.786 | 1517.6
298 K, x1 = 0.00261 | 997.846 | 1519.6
298 K, x1 = 0.002774 | 997.889 | 1520.8
298 K, x1 = 0.003111 | 997.987 | 1523.5
298 K, x1 = 0.003716 | 998.157 | 1527.9
298 K, x1 = 0.003899 | 998.198 | 1529.1
298 K, x1 = 0.004079 | 998.254 | 1530.5
298 K, x1 = 0.004181 | 998.28 | 1531.2
298 K, x1 = 0.004462 | 998.349 | 1533.1
298 K, x1 = 0.004601 | 998.382 | 1534
298 K, x1 = 0.004981 | 998.469 | 1536.3
298 K, x1 = 0.005198 | 998.52 | 1537.5
298 K, x1 = 0.005607 | 998.619 | 1539.8
298 K, x1 = 0.005782 | 998.649 | 1540.7
303 K, x1 = 0.000276 | 995.767 | 1511.7
303 K, x1 = 0.000495 | 995.808 | 1513.5
303 K, x1 = 0.000781 | 995.896 | 1515.8
303 K, x1 = 0.00102 | 995.954 | 1517.8
303 K, x1 = 0.0013 | 996.029 | 1520
303 K, x1 = 0.001503 | 996.067 | 1521.6
303 K, x1 = 0.001892 | 996.169 | 1524.7
303 K, x1 = 0.002073 | 996.211 | 1526.1
303 K, x1 = 0.002376 | 996.287 | 1528.3
303 K, x1 = 0.00261 | 996.341 | 1530.2
303 K, x1 = 0.002774 | 996.377 | 1531.2
303 K, x1 = 0.003111 | 996.455 | 1533.7
303 K, x1 = 0.003716 | 996.597 | 1537.7
303 K, x1 = 0.003899 | 996.633 | 1538.8
303 K, x1 = 0.004079 | 996.675 | 1540
303 K, x1 = 0.004181 | 996.696 | 1540.7
303 K, x1 = 0.004462 | 996.755 | 1542.4
303 K, x1 = 0.004601 | 996.78 | 1543.2
303 K, x1 = 0.004981 | 996.85 | 1545.2
303 K, x1 = 0.005198 | 996.89 | 1546.2
303 K, x1 = 0.005607 | 996.962 | 1548.2
303 K, x1 = 0.005782 | 996.986 | 1549
308 K, x1 = 0.000276 | 994.15 | 1522.2
308 K, x1 = 0.000495 | 994.182 | 1523.8
308 K, x1 = 0.000781 | 994.262 | 1526
308 K, x1 = 0.00102 | 994.297 | 1527.8
308 K, x1 = 0.0013 | 994.364 | 1529.8
308 K, x1 = 0.001503 | 994.399 | 1531.3
308 K, x1 = 0.001892 | 994.479 | 1534.1
308 K, x1 = 0.002073 | 994.514 | 1535.4
308 K, x1 = 0.002376 | 994.575 | 1537.4
308 K, x1 = 0.00261 | 994.623 | 1539.1
308 K, x1 = 0.002774 | 994.653 | 1540.1
308 K, x1 = 0.003111 | 994.711 | 1542.3
308 K, x1 = 0.003716 | 994.828 | 1545.9
308 K, x1 = 0.003899 | 994.859 | 1546.9
308 K, x1 = 0.004079 | 994.891 | 1548
308 K, x1 = 0.004181 | 994.908 | 1548.6
308 K, x1 = 0.004462 | 994.953 | 1550.1
308 K, x1 = 0.004601 | 994.974 | 1550.8
308 K, x1 = 0.004981 | 995.028 | 1552.6
308 K, x1 = 0.005198 | 995.061 | 1553.5
308 K, x1 = 0.005607 | 995.112 | 1555.3
308 K, x1 = 0.005782 | 995.128 | 1555.9
313 K, x1 = 0.000276 | 992.324 | 1531.1
313 K, x1 = 0.000495 | 992.347 | 1532.6
313 K, x1 = 0.000781 | 992.417 | 1534.6
313 K, x1 = 0.00102 | 992.447 | 1536.2
313 K, x1 = 0.0013 | 992.496 | 1538.1
313 K, x1 = 0.001503 | 992.524 | 1539.5
313 K, x1 = 0.001892 | 992.591 | 1542
313 K, x1 = 0.002073 | 992.619 | 1543.2
313 K, x1 = 0.002376 | 992.664 | 1545
313 K, x1 = 0.00261 | 992.706 | 1546.6
313 K, x1 = 0.002774 | 992.728 | 1547.5
313 K, x1 = 0.003111 | 992.774 | 1549.5
313 K, x1 = 0.003716 | 992.866 | 1552.7
313 K, x1 = 0.003899 | 992.89 | 1553.7
313 K, x1 = 0.004079 | 992.912 | 1554.6
313 K, x1 = 0.004181 | 992.929 | 1555.1
313 K, x1 = 0.004462 | 992.963 | 1556.5
313 K, x1 = 0.004601 | 992.978 | 1557.1
313 K, x1 = 0.004981 | 993.015 | 1558.7
313 K, x1 = 0.005198 | 993.04 | 1559.5
313 K, x1 = 0.005607 | 993.076 | 1561
313 K, x1 = 0.005782 | 993.084 | 1561.6
